Tested on: A549
Experiment: Cytotoxicity against human A549 cells assessed as growth inhibition by MTT assay
Format: functional, cell-based

Question: How did the IC50 turn out when C#CCN1C(=O)C2(C(C#N)=C(N)Oc3c2oc(CO)cc3=O)c2ccccc21 (centres undefined) was run?
Answer: > 200 µM

Question: For CCOC(=O)C1=C(N)Oc2c(oc(CO)cc2=O)C12C(=O)N(C)c1ccccc12 (centres undefined), which IC50 is on record?
Answer: 55.8 µM

Question: For CN1C(=O)C2(C(C#N)=C(N)Oc3c2oc(CO)cc3=O)c2ccccc21 (centres undefined), which IC50 is on record?
Answer: 51.1 µM

Question: With COC(=O)C1=C(N)Oc2c(oc(CO)cc2=O)C12C(=O)N(Cc1ccccc1)c1ccccc12 (centres undefined) as the compound, how does the IC50 read?
Answer: 55.1 µM

Question: N#CC1=C(N)Oc2c(oc(CO)cc2=O)C12C(=O)Nc1ccc(Cl)cc12 (centres undefined) was tested. Which IC50 did it give?
Answer: 51.4 µM

Question: With N#CC1=C(N)Oc2c(oc(CO)cc2=O)C12C(=O)Nc1ccc(F)cc12 (centres undefined) as the compound, how does the IC50 read?
Answer: > 200 µM

Question: For CCOC(=O)C1=C(N)Oc2c(oc(CO)cc2=O)C12C(=O)Nc1ccc(F)cc12 (centres undefined), which IC50 is on record?
Answer: > 200 µM

Question: For CCOC(=O)C1=C(N)Oc2c(oc(CO)cc2=O)C12C(=O)Nc1ccc(C)cc12 (centres undefined), which IC50 is on record?
Answer: 52.9 µM

Question: Which IC50 does the source give for C=CCN1C(=O)C2(C(C(=O)OCC)=C(N)Oc3c2oc(CO)cc3=O)c2ccccc21 (centres undefined) here?
Answer: 54.6 µM

Question: With CCOC(=O)C1=C(N)Oc2c(oc(CO)cc2=O)C12C(=O)Nc1ccc(Cl)cc12 (centres undefined) as the compound, how does the IC50 read?
Answer: 53.1 µM

Question: With COC(=O)C1=C(N)Oc2c(oc(CO)cc2=O)C12C(=O)Nc1ccc([N+](=O)[O-])cc12 (centres undefined) as the compound, how does the IC50 read?
Answer: 55.9 µM

Question: Which IC50 does the source give for N#CC1=C(N)Oc2c(oc(CO)cc2=O)C12C(=O)N(Cc1ccccc1)c1ccccc12 (centres undefined) here?
Answer: > 200 µM

Question: Which IC50 does the source give for C=CCN1C(=O)C2(C(C#N)=C(N)Oc3c2oc(CO)cc3=O)c2ccccc21 (centres undefined) here?
Answer: 59.4 µM

Question: CCOC(=O)C1=C(N)Oc2c(oc(CO)cc2=O)C12C(=O)Nc1ccccc12 (centres undefined) was tested. Which IC50 did it give?
Answer: > 200 µM

Question: N#CC1=C(N)Oc2c(oc(CO)cc2=O)C12C(=O)Nc1ccccc12 (centres undefined) was tested. Which IC50 did it give?
Answer: 52.8 µM

Question: CCOC(=O)C1=C(N)Oc2c(oc(CO)cc2=O)C12C(=O)Nc1ccc(Br)cc12 (centres undefined) was tested. Which IC50 did it give?
Answer: 52.8 µM

Question: Which IC50 does the source give for N#CC1=C(N)Oc2c(oc(CO)cc2=O)C12C(=O)Nc1ccc(Br)cc12 (centres undefined) here?
Answer: > 200 µM

Question: COC(=O)C1=C(N)Oc2c(oc(CO)cc2=O)C12C(=O)Nc1ccc(C)cc12 (centres undefined) was tested. Which IC50 did it give?
Answer: 62.8 µM

Question: How did the IC50 turn out when COC(=O)C1=C(N)Oc2c(oc(CO)cc2=O)C12C(=O)Nc1ccccc12 (centres undefined) was run?
Answer: 56.2 µM
